Measurements taken from US20250326753A1, “DUAL CXCR4-BTK INHIBITORS” (X4 Pharmaceuticals, Inc., priority 2022, published 2025).
Read-outs that look alike come from different tables or passages of the source.

Tests used:
ERBB4 = target: T1, ERBB4 (Homo sapiens, UniProt Q15303); assay: PanQinase kinase panel: ERBB4; format: biochemical; details: read-out: INHIBITORY EFFECT @ 1 uM: ERBB4
T1 construct: purchased Reaction Biology Europe GmbH
Method: (§1) Screening procedures were performed in accordance with the company's on-line protocol [accessed on-line Mar.
(§2) For each kinase, the median value of the cpm of three wells was defined as “low control” (n=3). This value reflects unspecific binding of radioactivity to the plate in the absence of a protein kinase but in the presence of the substrate. Additionally, for each kinase the median value of the cpm of three other wells was taken as the “high control,” i.e. full activity in the absence of any inhibitor (n=3). The difference between high and low control of each enzyme was taken as 100% activity.
As part of the data evaluation the low control of each kinase was subtracted from the high control value as well as from their corresponding “compound values”.

RET = target: T2, RET (Homo sapiens, UniProt P07949); assay: PanQinase kinase panel: RET; format: biochemical; details: read-out: INHIBITORY EFFECT @ 1 uM: RET
T2 construct: purchased Reaction Biology Europe GmbH
T2 sequence (P07949 29-1114): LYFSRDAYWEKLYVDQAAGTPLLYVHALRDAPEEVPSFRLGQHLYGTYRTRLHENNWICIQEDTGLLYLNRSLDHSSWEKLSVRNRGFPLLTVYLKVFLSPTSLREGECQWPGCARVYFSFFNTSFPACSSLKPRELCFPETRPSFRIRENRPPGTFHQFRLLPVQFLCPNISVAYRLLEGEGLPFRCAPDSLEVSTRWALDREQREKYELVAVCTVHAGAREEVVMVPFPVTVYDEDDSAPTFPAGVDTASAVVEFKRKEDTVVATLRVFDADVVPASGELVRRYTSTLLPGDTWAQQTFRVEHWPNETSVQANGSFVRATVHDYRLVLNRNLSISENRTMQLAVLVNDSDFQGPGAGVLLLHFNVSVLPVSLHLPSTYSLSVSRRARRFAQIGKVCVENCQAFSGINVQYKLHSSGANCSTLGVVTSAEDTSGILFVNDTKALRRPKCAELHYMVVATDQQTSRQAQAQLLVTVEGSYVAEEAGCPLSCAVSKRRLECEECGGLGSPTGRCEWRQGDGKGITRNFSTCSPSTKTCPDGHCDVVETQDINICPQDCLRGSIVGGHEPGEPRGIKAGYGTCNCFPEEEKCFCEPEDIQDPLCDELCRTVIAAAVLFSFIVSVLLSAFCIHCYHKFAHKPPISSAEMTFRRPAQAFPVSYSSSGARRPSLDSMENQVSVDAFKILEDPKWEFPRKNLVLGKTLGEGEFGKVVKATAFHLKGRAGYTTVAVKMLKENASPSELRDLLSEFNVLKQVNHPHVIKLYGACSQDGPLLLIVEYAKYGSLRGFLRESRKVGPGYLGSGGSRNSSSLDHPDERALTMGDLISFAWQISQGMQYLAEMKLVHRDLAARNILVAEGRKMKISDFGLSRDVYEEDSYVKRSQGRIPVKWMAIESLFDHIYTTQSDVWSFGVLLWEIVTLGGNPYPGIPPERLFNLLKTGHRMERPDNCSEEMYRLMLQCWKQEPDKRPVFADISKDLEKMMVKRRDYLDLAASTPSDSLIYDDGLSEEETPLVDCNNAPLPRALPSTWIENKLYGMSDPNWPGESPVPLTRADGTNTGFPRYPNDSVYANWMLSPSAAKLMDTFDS
Method: as §1, §2
(§3) As part of the data evaluation the low control of each kinase was subtracted from the high control value as well as from their corresponding “compound values”. The residual activity (in %) for each compound well was calculated by using the following formula: Res. Activity (%)=100×[(signal of compound−low control)/(high control−low control)].

TXK = target: T3, TXK (Homo sapiens, UniProt P42681); assay: PanQinase kinase panel: TXK; format: biochemical; details: read-out: INHIBITORY EFFECT @ 1 uM: TXK
T3 construct: purchased Reaction Biology Europe GmbH
T3 sequence (P42681 1-527): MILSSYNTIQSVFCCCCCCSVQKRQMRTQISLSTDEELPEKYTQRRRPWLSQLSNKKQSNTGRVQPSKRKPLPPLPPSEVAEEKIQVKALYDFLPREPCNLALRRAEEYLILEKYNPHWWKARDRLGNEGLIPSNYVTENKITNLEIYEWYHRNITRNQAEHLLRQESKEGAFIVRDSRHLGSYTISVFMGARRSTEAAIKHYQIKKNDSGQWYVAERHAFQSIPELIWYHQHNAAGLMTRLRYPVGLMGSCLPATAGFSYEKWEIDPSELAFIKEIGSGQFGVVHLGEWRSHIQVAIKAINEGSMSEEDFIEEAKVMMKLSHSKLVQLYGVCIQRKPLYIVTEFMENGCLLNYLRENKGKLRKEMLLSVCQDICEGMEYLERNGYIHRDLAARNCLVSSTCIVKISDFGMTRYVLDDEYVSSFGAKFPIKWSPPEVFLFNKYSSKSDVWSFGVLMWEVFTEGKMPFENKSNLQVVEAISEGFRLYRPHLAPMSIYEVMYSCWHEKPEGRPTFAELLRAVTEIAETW
Method: as §1, §2, §3

CSK = target: T4, CSK (Homo sapiens, UniProt P41240); assay: PanQinase kinase panel: CSK; format: biochemical; details: read-out: INHIBITORY EFFECT @ 1 uM: CSK
T4 construct: purchased Reaction Biology Europe GmbH
T4 sequence (P41240 whole entry): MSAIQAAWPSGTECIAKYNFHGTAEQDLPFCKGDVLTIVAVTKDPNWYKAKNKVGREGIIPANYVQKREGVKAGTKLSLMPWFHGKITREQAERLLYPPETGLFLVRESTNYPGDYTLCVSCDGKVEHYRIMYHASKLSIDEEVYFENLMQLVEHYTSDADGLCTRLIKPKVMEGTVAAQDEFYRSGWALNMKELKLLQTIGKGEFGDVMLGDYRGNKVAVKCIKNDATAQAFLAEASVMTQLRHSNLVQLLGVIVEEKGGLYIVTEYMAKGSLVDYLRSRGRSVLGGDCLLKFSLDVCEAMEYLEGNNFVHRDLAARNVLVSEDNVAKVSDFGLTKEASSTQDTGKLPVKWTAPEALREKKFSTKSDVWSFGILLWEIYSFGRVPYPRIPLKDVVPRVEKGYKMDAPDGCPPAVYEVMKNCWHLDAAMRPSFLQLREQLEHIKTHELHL
Method: as §1, §2, §3

TRKC = target: T5, TRKC (Homo sapiens, UniProt Q16288); assay: PanQinase kinase panel: TRKC; format: biochemical; details: read-out: INHIBITORY EFFECT @ 1 uM: TRKC
T5 construct: purchased Reaction Biology Europe GmbH
T5 sequence (Q16288 32-839): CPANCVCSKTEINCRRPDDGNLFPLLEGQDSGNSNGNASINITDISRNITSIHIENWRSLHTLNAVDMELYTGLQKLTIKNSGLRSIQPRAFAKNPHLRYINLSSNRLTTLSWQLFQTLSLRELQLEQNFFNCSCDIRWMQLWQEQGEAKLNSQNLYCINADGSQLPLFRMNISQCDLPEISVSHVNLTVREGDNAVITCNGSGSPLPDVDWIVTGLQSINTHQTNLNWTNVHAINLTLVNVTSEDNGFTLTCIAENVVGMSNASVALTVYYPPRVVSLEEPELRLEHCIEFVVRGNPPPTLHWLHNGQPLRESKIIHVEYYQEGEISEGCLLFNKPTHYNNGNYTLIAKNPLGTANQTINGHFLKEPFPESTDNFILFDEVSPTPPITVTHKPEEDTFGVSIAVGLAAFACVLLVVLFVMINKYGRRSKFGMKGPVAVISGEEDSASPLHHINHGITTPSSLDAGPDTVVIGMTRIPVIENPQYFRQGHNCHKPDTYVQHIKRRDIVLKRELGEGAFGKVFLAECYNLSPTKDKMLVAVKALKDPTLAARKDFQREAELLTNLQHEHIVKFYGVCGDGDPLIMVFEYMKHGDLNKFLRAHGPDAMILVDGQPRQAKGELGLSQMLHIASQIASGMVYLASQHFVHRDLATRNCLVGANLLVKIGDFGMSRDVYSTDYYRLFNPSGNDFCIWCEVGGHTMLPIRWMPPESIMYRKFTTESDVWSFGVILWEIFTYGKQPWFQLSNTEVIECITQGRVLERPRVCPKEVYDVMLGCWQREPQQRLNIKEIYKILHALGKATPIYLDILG
Method: as §1, §2, §3

TRKA = target: T6, TRKA (Homo sapiens, UniProt P04629); assay: PanQinase kinase panel: TRKA; format: biochemical
T6 construct: purchased Reaction Biology Europe GmbH
T6 sequence (P04629 33-796): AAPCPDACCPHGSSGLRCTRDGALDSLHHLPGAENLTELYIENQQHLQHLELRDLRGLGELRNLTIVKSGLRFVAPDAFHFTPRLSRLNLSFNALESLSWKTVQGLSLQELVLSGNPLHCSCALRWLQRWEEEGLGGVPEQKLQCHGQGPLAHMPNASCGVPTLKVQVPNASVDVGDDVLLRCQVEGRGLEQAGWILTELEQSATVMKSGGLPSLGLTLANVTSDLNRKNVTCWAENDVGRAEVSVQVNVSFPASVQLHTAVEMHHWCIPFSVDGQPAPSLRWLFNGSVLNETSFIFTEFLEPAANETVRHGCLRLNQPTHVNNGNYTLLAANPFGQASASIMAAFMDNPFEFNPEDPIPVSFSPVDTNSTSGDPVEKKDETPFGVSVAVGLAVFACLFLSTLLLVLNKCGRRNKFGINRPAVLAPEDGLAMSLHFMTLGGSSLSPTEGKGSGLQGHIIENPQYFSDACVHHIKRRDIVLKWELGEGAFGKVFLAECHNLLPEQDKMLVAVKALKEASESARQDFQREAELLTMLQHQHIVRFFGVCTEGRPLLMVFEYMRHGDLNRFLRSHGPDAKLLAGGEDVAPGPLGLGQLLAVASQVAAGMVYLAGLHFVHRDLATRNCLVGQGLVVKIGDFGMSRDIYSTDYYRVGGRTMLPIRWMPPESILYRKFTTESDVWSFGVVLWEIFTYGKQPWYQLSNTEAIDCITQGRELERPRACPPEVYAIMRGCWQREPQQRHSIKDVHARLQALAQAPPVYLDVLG
Method: as §1, §2, §3

Ramos cell line = Ramos cell line viability assay (CellTiter-Glo, 72 hr); format: cell-based; details: Homo sapiens
Method: Inhibition of non-Hodgkin lymphoma B-cell proliferation by compounds of the present invention was evaluated in a Ramos cell line. Ramos is a B lymphocyte cell line that was derived from a patient with Burkitt's Lymphoma.
Cell viability was analyzed with the CellTiter-Glo® Luminescent Cell Viability Assay Kit (G7572, Promega), according to the manufacturer's instruction. Cells were seeded into a 96-well/384-well plate and then incubated in 5% CO2 at 37° C. overnight. Compounds were added to the cells, with 9-10 dose points in duplicates in 3-fold dilution from a top concentration of 30 μM, and incubated in 5% CO2 at 37° C. for 72 hr. The 96-well/384-well plate was equilibrated at room temperature for 30 min. 50 μl/25 μl of CellTiter-Glo® Reagent was added to each well and mixed for 2 min on an orbital shaker to induce cell lysis. The 96-well/384-well plate was incubated at room temperature for 10 min to stabilize luminescent signal. Luminescence was detected on a PerkinElmer EnVision Multimode Plate Reader as relative luminescence units (RLU).

BTK = BTK (Homo sapiens, UniProt Q06187); assay: BTK Kinase Enzyme System with ADP-Glo Kinase Assay; format: biochemical; set-up: Recombinant full-length human BTK was expressed by baculovirus in Sf9 insect cells; His (N); purchased Promega V9071; host or cells: Sf9 insect cells (baculovirus); details: 50 μM ATP
Chain of BTK (Q06187 whole entry): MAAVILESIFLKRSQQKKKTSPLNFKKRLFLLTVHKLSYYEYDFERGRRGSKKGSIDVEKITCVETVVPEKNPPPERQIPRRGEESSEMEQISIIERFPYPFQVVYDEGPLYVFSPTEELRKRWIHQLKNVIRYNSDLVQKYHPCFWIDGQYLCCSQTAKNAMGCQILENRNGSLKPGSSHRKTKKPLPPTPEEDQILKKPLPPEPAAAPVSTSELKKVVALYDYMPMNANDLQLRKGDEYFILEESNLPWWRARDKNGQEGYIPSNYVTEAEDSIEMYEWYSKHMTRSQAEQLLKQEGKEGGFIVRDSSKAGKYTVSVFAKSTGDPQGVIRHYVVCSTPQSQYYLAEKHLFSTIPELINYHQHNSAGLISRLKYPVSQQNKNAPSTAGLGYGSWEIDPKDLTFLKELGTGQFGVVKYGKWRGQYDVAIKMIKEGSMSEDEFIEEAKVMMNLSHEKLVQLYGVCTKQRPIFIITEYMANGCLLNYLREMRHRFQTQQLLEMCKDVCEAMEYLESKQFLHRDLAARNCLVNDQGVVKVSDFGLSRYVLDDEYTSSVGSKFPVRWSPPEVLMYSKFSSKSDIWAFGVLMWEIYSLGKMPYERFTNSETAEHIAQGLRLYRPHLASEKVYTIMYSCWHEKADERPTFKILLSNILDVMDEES
Method: Inhibition of BTK activity was evaluated using the BTK Kinase Enzyme System in combination with the ADP-Glo™ Kinase Assay Kit (V9071, Promega), according to manufacturer's instructions. Luminescence was detected on a PerkinElmer EnVision Multimode Plate Reader.
Recombinant full-length human BTK was expressed by baculovirus in Sf9 insect cells using an N-terminal His tag, MW ˜78 kDa. Substrate solution contained Poly (4:1 Glu, Tyr) Peptide Substrate. BTK Kinase Buffer consisted of: 40 mM Tris, pH 7.5; 20 mM MgCl2; 0.1 mg/ml BSA; 2 mM MnCl2; 50 μM DTT. ADP-Glo™ Reagents were thawed at ambient temperature; components of BTK Enzyme System, ADP and ATP were thawed on ice. Final assay conditions used 3 ng BTK, 50 μM ATP, and 0.2 mg/mL substrate. Compounds were tested at 11 dose points in duplicates, in 3-fold dilution with top concentration at 10 μM.
Assay performance was evaluated according to the reference compound Staurosporine, which was within 3-5 fold of published results and between different tests, with a Z′ value larger than 0.5, where applicable.

[1] = at 1 μM, read-out: inhibition of TRKA
[2] = read-out: INHIBITORY EFFECT @ 1 uM: TRKA
[3] = class, read-out: Ramos viability IC50

T1 sequence (Q15303 26-1308): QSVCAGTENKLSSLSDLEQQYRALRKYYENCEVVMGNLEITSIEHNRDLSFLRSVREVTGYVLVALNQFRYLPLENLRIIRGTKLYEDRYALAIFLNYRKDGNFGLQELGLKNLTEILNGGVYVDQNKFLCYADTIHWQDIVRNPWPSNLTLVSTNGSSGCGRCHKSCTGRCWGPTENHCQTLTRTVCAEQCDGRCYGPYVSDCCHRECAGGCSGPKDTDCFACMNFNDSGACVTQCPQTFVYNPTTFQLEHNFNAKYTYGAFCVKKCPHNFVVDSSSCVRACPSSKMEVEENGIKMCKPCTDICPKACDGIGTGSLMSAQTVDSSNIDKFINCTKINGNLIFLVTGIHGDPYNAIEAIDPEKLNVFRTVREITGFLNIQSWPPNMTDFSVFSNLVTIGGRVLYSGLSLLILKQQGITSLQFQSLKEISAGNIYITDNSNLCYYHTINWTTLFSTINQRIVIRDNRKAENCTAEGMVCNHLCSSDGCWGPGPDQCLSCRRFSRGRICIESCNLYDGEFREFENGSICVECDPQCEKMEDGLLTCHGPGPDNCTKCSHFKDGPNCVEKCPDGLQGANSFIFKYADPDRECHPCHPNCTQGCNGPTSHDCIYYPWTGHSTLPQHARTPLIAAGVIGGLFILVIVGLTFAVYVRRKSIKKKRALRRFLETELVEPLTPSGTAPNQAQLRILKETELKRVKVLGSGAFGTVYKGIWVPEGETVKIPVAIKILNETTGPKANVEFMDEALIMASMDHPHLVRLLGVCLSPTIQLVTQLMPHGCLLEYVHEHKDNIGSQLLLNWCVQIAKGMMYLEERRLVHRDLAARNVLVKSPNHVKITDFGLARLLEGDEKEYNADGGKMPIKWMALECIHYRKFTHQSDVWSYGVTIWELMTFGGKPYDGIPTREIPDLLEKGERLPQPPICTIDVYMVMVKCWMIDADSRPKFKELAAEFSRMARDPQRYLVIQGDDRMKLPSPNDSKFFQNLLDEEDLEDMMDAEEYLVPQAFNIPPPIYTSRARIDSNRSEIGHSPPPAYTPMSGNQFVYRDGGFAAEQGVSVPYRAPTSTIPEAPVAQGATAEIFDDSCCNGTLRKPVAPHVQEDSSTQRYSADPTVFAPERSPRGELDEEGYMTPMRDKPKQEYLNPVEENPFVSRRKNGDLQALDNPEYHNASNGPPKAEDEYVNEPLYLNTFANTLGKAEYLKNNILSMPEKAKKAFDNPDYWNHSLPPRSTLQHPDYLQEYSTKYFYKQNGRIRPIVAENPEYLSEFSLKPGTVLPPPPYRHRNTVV

SMILES	inhibition at 1 µM (ERBB4) [%]	inhibition at 1 µM (RET) [%]	inhibition at 1 µM (TXK) [%]	inhibition at 1 µM (CSK) [%]	inhibition at 1 µM (TRKC) [%]	inhibition at 1 µM (TRKA; [1]) [%]	inhibition at 1 µM (TRKA; [2]) [%]	IC50 (Ramos cell line; [3]) [nM]	IC50 (Ramos cell line; read-out: IC50) [nM]	IC50 (BTK) [nM]
O=C(c1ccc(Oc2ccccc2)cc1Cl)c1c[nH]c2ncnc(N[C@@H]3CC[C@@H](CO)OC3)c12 [ARQ-531, (2-chloro-4-phenoxyphenyl) (4-(((3R,6S)-6-(hydroxymethyl)tetrahydro-2H-pyran-3-yl)amino)-7H-pyrrolo[2,3-d]pyrimidin-5-yl) methanone]	90 to 100	90 to 100	90 to 100	90 to 100	< 50	≥ 50	90 to 100	–	–	–
Cc1cccnc1[C@H]1CCC[C@@H](c2ncccc2C)N1CCN1CCN(C(=O)c2ccc(-c3cc4c(-c5cccc(NC(=O)c6ccccc6)c5C)ncnc4[nH]3)cc2)CC1 [Compound I-10, N-(3-(6-(4-(4-(2-((2R,6S)-2,6-bis(3-methylpyridin-2-yl)piperidin-1-yl)ethyl)piperazine-1-carbonyl)phenyl)-7H-pyrrolo[2,3-d]pyrimidin-4-yl)-2-methylphenyl)benzamide]	< 50	< 50	< 50	< 50	< 50	50 to 89	70 to 89	2000 to 4000	2670	1 to 100
Cc1cc(-c2ccnc(Nc3cnn(CCN4[C@@H](c5ncccc5C)CCC[C@H]4c4ncccc4C)c3)n2)ccc1CNC(=O)N1CC(OC(C)C)C1 [Compound I-11]	–	–	–	–	–	–	–	–	–	1 to 100
Cc1cccnc1[C@H]1CCC[C@@H](c2ncccc2C)N1CCCCNC(=O)[C@@H]1CC[C@@H](Nc2ncnc3[nH]cc(C(=O)c4ccc(Oc5ccccc5)cc4Cl)c23)CO1 [Compound I-16]	–	–	–	–	–	–	–	1000 to 1500	1480	1 to 100
Cc1cccnc1[C@H]1CCC[C@@H](c2ncccc2C)N1CCCCNC(=O)OC[C@@H]1CC[C@@H](Nc2ncnc3[nH]cc(C(=O)c4ccc(Oc5ccccc5)cc4Cl)c23)CO1 [Compound I-18]	–	–	–	–	–	–	–	1000 to 1500	1330	1 to 100
COc1ccc(F)cc1C(=O)NCc1ccc(-c2nn([C@@H](C)C(F)(F)F)c(N)c2C(N)=O)cc1 [LOXO-305, pirtobrutinib]	50 to 69	50 to 69	50 to 69	70 to 89	50 to 69	–	< 50	–	–	–
C=CC(=O)N1CCC([C@@H]2CCNc3c(C(N)=O)c(-c4ccc(Oc5ccccc5)cc4)nn32)CC1 [Zanubrutinib, (7S)-2-(4-phenoxyphenyl)-7-(1-prop-2-enoylpiperidin-4-yl)-4,5,6,7-tetrahydropyrazolo[1,5-a]pyrimidine-3-carboxamide]	–	< 50	90 to 100	–	< 50	–	< 50	≥ 4000	11900	–
